Measurements taken from patent US20080312255A1 (ASTRAZENECA AB, priority 2007, published 2008).

molecular target: S. aureus GyrB ATPase (Staphylococcus aureus, UniProt P0A0K8); test: S. aureus GyrB ATPase inhibition (ammonium molybdate/malachite green phosphate detection); format: biochemical; details: compound concentration of 1 μM
Protocol: S. aureus GyrB ATPase Inhibition Activity: Compounds may be tested for inhibition of S. aureus GyrB ATPase activity using an ammonium molybdate/malachite green-based phosphate detection assay (Lanzetta, P. A., L. J. Alvarez, P. S. Reinach, and O. A. Candia, 1979, 100: 95-97). Assays can be performed in multiwell plates in 30 μl reactions containing: 50 mM Hepes buffer pH 7.5, 75 mM ammonium acetate, 8.0 mM magnesium chloride, 0.5 mM ethylenediaminetetraacetic acid, 5% glycerol, 1.0 mM 1,4-Dithio-DL-threitol, 200 nM bovine serum albumin, 1.0 μg/ml sheared salmon sperm DNA, 250 pM E. coli GyrA, 250 pM S. aureus GyrB, 250 μM ATP, and compound in dimethylsulfoxide. Reactions can be quenched with […] of ammonium molybdate/malachite green detection reagent containing 1.2 mM malachite green hydrochloride, 8.5 mM ammonium molybdate tetrahydrate, and 1 M hydrochloric acid. Plates can be read in an absorbance plate reader at 650 nm and percent inhibition values can be calculated using dimethylsulfoxide (2%)-containing reactions as 0% inhibition and EDTA-containing ([…]) reactions as 100% inhibition controls. An IC50 measurement of compound potency for each compound can be determined from reactions performed in the presence of 10 different compound concentrations.
Compounds of the invention were tested in an assay substantially similar to the assay described above for measuring the inhibition of S. aureus GyrB ATPase. Percent inhibition of S. aureus GyrB ATPase at a compound concentration of 1 μM (unless otherwise noted) is disclosed in the following table: […]

Chain of S. aureus GyrB ATPase (P0AES4 whole entry): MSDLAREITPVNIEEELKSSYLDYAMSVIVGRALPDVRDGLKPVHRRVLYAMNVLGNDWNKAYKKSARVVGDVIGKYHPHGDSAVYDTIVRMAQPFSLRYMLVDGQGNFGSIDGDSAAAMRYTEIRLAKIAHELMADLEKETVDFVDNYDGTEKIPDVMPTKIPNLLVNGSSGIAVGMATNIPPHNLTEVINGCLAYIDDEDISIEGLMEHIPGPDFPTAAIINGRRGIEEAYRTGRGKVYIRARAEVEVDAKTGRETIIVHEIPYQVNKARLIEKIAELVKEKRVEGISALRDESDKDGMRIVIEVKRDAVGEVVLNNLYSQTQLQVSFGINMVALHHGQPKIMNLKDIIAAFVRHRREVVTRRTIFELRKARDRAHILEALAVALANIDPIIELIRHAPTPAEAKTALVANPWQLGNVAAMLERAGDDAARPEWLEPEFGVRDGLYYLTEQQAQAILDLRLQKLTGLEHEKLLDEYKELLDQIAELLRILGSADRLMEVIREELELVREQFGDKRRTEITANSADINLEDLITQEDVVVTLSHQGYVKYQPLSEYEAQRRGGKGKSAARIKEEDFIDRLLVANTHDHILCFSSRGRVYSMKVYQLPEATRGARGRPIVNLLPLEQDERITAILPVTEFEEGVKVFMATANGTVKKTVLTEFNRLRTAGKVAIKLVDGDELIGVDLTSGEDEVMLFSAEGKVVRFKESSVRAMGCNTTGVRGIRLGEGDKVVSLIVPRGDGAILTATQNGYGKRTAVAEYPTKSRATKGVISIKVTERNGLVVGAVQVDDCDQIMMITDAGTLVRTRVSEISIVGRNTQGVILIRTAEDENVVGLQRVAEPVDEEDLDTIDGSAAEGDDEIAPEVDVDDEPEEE
Chain of S. aureus GyrB ATPase (P0A0K8 whole entry): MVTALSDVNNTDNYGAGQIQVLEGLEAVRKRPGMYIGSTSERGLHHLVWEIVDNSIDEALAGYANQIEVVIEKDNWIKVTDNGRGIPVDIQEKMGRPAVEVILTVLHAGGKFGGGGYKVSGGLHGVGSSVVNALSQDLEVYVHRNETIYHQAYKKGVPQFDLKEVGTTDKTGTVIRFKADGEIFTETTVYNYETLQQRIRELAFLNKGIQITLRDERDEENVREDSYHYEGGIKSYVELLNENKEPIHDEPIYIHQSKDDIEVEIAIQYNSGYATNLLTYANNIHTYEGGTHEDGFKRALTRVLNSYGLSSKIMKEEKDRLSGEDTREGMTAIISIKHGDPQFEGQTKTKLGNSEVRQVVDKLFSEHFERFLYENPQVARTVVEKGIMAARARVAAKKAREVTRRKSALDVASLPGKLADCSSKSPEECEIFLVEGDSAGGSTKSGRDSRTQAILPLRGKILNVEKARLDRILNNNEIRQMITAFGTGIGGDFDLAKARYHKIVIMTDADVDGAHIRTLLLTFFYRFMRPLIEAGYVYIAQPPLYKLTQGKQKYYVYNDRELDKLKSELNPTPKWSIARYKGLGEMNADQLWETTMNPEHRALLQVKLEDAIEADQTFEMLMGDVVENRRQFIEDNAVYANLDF

Compound	inhibition at 1 µM
COCCn1ccnc1-c1nc(N2CC[C@@H](NC(=O)c3[nH]c(C)c(Cl)c3Cl)[C@@H](F)C2)sc1C(=O)O [Example 26, 2-((3S,4R)-4-{[(3,4-Dichloro-5-methyl-1H-pyrrol-2-yl)carbonyl]amino}-3-fluoropiperidin-1-yl)-4-[1-(2-methoxyethyl)-1H-imidazol-2-yl]-1,3-thiazole-5-carboxylic acid]	97.4%
CO[C@H]1CN(c2nc(-c3ncnn3C)c(C(=O)O)s2)CC[C@H]1NC(=O)c1[nH]c(C)c(Cl)c1Cl [Example 27, 2-((3S,4R)-4-{[(3,4-Dichloro-5-methyl-1H-pyrrol-2-yl)carbonyl]amino}-3-methoxypiperidin-1-yl)-4-(1-methyl-1H-1,2,4-triazol-5-yl)-1,3-thiazole-5-carboxylic acid]	99.9%
Cc1[nH]c(C(=O)N[C@@H]2CCN(c3nc(-c4ncnn4C)c(C(=O)O)s3)C[C@@H]2F)c(Cl)c1Cl [Example 28, 2-((3S,4R)-4-{[(3,4-Dichloro-5-methyl-1H-pyrrol-2-yl)carbonyl]amino}-3-fluoropiperidin-1-yl)-4-(1-methyl-1H-1,2,4-triazol-5-yl)-1,3-thiazole-5-carboxylic acid]	87.1%
CO[C@H]1CN(c2nc(-c3ncnn3C)c(C(=O)O)s2)CC[C@H]1NC(=O)c1[nH]c(C)c(C#N)c1Cl [Example 29, 2-((3S,4R)-4-{[(3-Chloro-4-cyano-5-methyl-1H-pyrrol-2-yl)carbonyl]amino}-3-methoxypiperidin-1-yl)-4-(1-methyl-1H-1,2,4-triazol-5-yl)-1,3-thiazole-5-carboxylic acid]	101%
COCCn1ccnc1-c1nc(N2CC[C@@H](NC(=O)c3[nH]c(C)c(C#N)c3Cl)[C@@H](OC)C2)sc1C(=O)O [Example 30, 2-((3S,4R)-4-{[(3-Chloro-4-cyano-5-methyl-1H-pyrrol-2-yl)carbonyl]amino}-3-methoxypiperidin-1-yl)-4-[1-(2-methoxyethyl)-1H-imidazol-2-yl]-1,3-thiazole-5-carboxylic acid]	102%
CO[C@H]1CN(c2nc(-c3ncnn3C)c(C(=O)O)s2)CC[C@H]1NC(=O)c1cc(C#N)c(C)[nH]1 [Example 31, 2-((3S,4R)-4-{[(4-Cyano-5-methyl-1H-pyrrol-2-yl)carbonyl]amino}-3-methoxypiperidin-1-yl)-4-(1-methyl-1H-1,2,4-triazol-5-yl)-1,3-thiazole-5-carboxylic acid]	99.3%
CO[C@H]1CN(c2nc(-c3nc(C)c(C)n3C)c(C(=O)O)s2)CC[C@H]1NC(=O)c1[nH]c(C)c(Cl)c1Cl [Example 32, 2-((3S,4R)-4-{[(3,4-Dichloro-5-methyl-1H-pyrrol-2-yl)carbonyl]amino}-3-methoxypiperidin-1-yl)-4-(1,4,5-trimethyl-1H-imidazol-2-yl)-1,3-thiazole-5-carboxylic acid]	99.9%
CO[C@H]1CN(c2nc(-c3csc(N)n3)c(C(=O)O)s2)CC[C@H]1NC(=O)c1[nH]c(C)c(Cl)c1Cl [Example 33, 2′-Amino-2-((3S,4R)-4-{[(3,4-dichloro-5-methyl-1H-pyrrol-2-yl)carbonyl]amino}-3-methoxypiperidin-1-yl)-4,4′-bi-1,3-thiazole-5-carboxylic acid]	101%
CNc1nc(-c2nc(N3CC[C@@H](NC(=O)c4[nH]c(C)c(Cl)c4Cl)[C@@H](OC)C3)sc2C(=O)O)cs1 [Example 34, 2-((3S,4R)-4-{[(3,4-Dichloro-5-methyl-1H-pyrrol-2-yl)carbonyl]amino}-3-methoxypiperidin-1-yl)-2′-(methylamino)-4,4′-bi-1,3-thiazole-5-carboxylic acid]	99.6%
CO[C@H]1CN(c2nc(-c3csc(N(C)C)n3)c(C(=O)O)s2)CC[C@H]1NC(=O)c1[nH]c(C)c(Cl)c1Cl [Example 35, 2-((3S,4R)-4-{[(3,4-Dichloro-5-methyl-1H-pyrrol-2-yl)carbonyl]amino}-3-methoxypiperidin-1-yl)-2′-(dimethylamino)-4,4′-bi-1,3-thiazole-5-carboxylic acid]	96.6%
Cc1[nH]c(C(=O)N[C@@H]2CCN(c3nc(-c4csc(N)n4)c(C(=O)O)s3)C[C@@H]2F)c(Cl)c1Cl [Example 36, 2′-Amino-2-((3S,4R)-4-{[(3,4-dichloro-5-methyl-1H-pyrrol-2-yl)carbonyl]amino}-3-fluoropiperidin-1-yl)-4,4′-bi-1,3-thiazole-5-carboxylic acid]	99.6%
CNc1nc(-c2nc(N3CC[C@@H](NC(=O)c4[nH]c(C)c(Cl)c4Cl)[C@@H](F)C3)sc2C(=O)O)cs1 [Example 37, 2-((3S,4R)-4-{[(3,4-Dichloro-5-methyl-1H-pyrrol-2-yl)carbonyl]amino}-3-fluoropiperidin-1-yl)-2′-(methylamino)-4,4′-bi-1,3-thiazole-5-carboxylic acid]	101%
Cc1[nH]c(C(=O)N[C@@H]2CCN(c3nc(-c4csc(N(C)C)n4)c(C(=O)O)s3)C[C@@H]2F)c(Cl)c1Cl [Example 38, 2-((3S,4R)-4-{[(3,4-Dichloro-5-methyl-1H-pyrrol-2-yl)carbonyl]amino}-3-fluoropiperidin-1-yl)-2′-(dimethylamino)-4,4′-bi-1,3-thiazole-5-carboxylic acid]	97.3%
Cc1[nH]c(C(=O)N[C@@H]2CCN(c3nc(-c4nccn4C)c(C(=O)O)s3)C[C@@H]2F)c(Cl)c1Cl [Example 39, 2-((3S,4R)-4-{[(3,4-Dichloro-5-methyl-1H-pyrrol-2-yl)carbonyl]amino}-3-fluoropiperidin-1-yl)-4-(1-methyl-1H-imidazol-2-yl)-1,3-thiazole-5-carboxylic acid]	101%
CO[C@H]1CN(c2nc(-c3cn(C)cn3)c(C(=O)O)s2)CC[C@H]1NC(=O)c1[nH]c(C)c(Cl)c1Cl [Example 40, 2-((3S,4R)-4-{[(3,4-Dichloro-5-methyl-1H-pyrrol-2-yl)carbonyl]amino}-3-methoxypiperidin-1-yl)-4-(1-methyl-1H-imidazol-4-yl)-1,3-thiazole-5-carboxylic acid]	101%
Cc1[nH]c(C(=O)N[C@@H]2CCN(c3nc(-c4cn(C)cn4)c(C(=O)O)s3)C[C@@H]2F)c(Cl)c1Cl [Example 41, 2-((3S,4R)-4-{[(3,4-Dichloro-5-methyl-1H-pyrrol-2-yl)carbonyl]amino}-3-fluoropiperidin-1-yl)-4-(1-methyl-1H-imidazol-4-yl)-1,3-thiazole-5-carboxylic acid]	104%
COc1ccnc(-c2nc(N3CC[C@@H](NC(=O)c4[nH]c(C)c(Cl)c4Cl)[C@@H](OC)C3)sc2C(=O)O)n1 [Example 42, 2-((3S,4R)-4-{[(3,4-Dichloro-5-methyl-1H-pyrrol-2-yl)carbonyl]amino}-3-methoxypiperidin-1-yl)-4-(4-methoxypyrimidin-2-yl)-1,3-thiazole-5-carboxylic acid]	99.9%
CCOC(=O)c1sc(N2CC[C@@H](NC(=O)c3[nH]c(C)c(Cl)c3Cl)[C@@H](OC)C2)nc1-c1ncccn1 [Example 43, Ethyl 2-((3S,4R)-4-{[(3,4-dichloro-5-methyl-1H-pyrrol-2-yl)carbonyl]amino}-3-methoxypiperidin-1-yl)-4-pyrimidin-2-yl-1,3-thiazole-5-carboxylate]	102%
COC(=O)c1sc(N2CC[C@@H](NC(=O)c3[nH]c(C)c(Cl)c3Cl)[C@@H](OC)C2)nc1-c1nccs1 [Example 44]	99.6%
CCOC(=O)c1sc(N2CC[C@@H](NC(=O)c3[nH]c(C)c(Cl)c3Cl)[C@@H](F)C2)nc1-c1ncccn1 [Example 45]	100%
CCOC(=O)c1sc(N2CC[C@@H](NC(=O)c3[nH]c(C)c(Cl)c3Cl)[C@@H](F)C2)nc1-c1ccncn1 [Example 46]	102%
COC(=O)c1sc(N2CC[C@@H](NC(=O)c3[nH]c(C)c(Cl)c3Cl)[C@@H](F)C2)nc1-c1nccs1 [Example 47]	101%
CCOC(=O)c1sc(N2CC[C@@H](NC(=O)c3[nH]c(C)c(Cl)c3Cl)[C@@H](OC)C2)nc1-c1ccccn1 [Example 48]	100%
CCOC(=O)c1sc(N2CC[C@@H](NC(=O)c3[nH]c(C)c(Cl)c3Cl)[C@@H](F)C2)nc1-c1ccccn1 [Example 49]	112%
CCOC(=O)c1sc(N2CC[C@@H](NC(=O)c3[nH]c(C)c(Cl)c3Cl)[C@@H](OC)C2)nc1-c1cc(N(C)C)nc(N(C)C)n1 [Example 50]	97%
CCOC(=O)c1sc(N2CC[C@@H](NC(=O)c3[nH]c(C)c(Cl)c3Cl)[C@@H](OC)C2)nc1-c1nc(OC)cc(OC)n1 [Example 52]	101%
CCOC(=O)c1sc(N2CC[C@@H](NC(=O)c3[nH]c(C)c(Cl)c3Cl)[C@@H](OC)C2)nc1-c1cnccn1 [Example 53]	100%
CCOC(=O)c1sc(N2CC[C@@H](NC(=O)c3[nH]c(C)c(Cl)c3Cl)[C@@H](OC)C2)nc1-c1nc2ccccc2s1 [Example 54]	97.8%
CCOC(=O)c1sc(N2CC[C@@H](NC(=O)c3[nH]c(C)c(Cl)c3Cl)[C@@H](F)C2)nc1-c1cnccn1 [Example 55]	97.9%
CCOC(=O)c1sc(N2CC[C@@H](NC(=O)c3[nH]c(C)c(Cl)c3Cl)[C@@H](F)C2)nc1-c1nc2ccccc2s1 [Example 56]	93.9%
